In patent US12600696B2 (XENIOPRO GMBH, priority 2017, dated 2026):

System: HL-60 cells (human acute myeloid leukemia cells)
Assay: alamarBlue proliferation assay with HL-60 cells
Assay type: cell-based
Conditions: 120 h, 5 days, relative to DMSO baseline level of 1.0, read-out: AVEw, weighted arithmetic mean of normalized fluorescence intensity values (Activity Range), HL-60 proliferation
Method: The antiproliferative activities of compounds falling under formula I, formula II, formula III, formula IV and formula V were investigated on cells or cell lines originating from a disorder of the myeloid cell compartment, the neuroendocrine system, the cervix, and the mucosal epithelium, as well as from the skin epithelium. To this end, HL-60 cells, TT cells, HeLa cells, CAL-27 cells and human primary epidermal keratinocytes (HPEK) were seeded into 96-well plates suitable for fluorescence assays (CORNING #3598) at following initial cell numbers: 1000 cells per well for HL-60; 9000 cells per well for TT; 2000 cells per well for HeLa, 2000 cells per well for CAL-27, 2000 cells per well for HPEK. The cells were treated with compounds at indicated final concentrations (diluted from the 1000× stock-solutions in DMSO to a final DMSO concentration of 0.1% v/v) or with the empty carrier DMSO at 0.1% v/v as control for 5 days. At day 5 after starting the treatments the cells were subjected to the alamarBlue® Proliferation Assay (Bio-Rad Serotec GmbH, BUF012B) according to the protocol of the manufacturer. The readout was taken with a multi-well plate-reader in the fluorescence mode with applying a filter for excitation at 560 nm (band width 10 nm) and for emission at 590 nm (band width 10 nm). Resveratrol (RES) treatment was included as control for growth inhibition.
The assays were performed in duplicate or more replicates of independent single experiments each containing a six-fold replicate for every condition. For every individual plate, the measured fluorescence intensity values of the conditions with compound treatment were normalized against the corresponding equally weighted arithmetic mean of the fluorescence intensity values of the six DMSO treated control wells in order to obtain the relative values to a baseline level of 1.0. The statistical calculations were performed in analogy to the luciferase assay as described above. To this end, two independent outlier analyses were performed according to the methods by Peirce and Chauvenet (Ross, Journal of Engineering Technology 2003, 1-12). Outliers confirmed by at least one of the methods were excluded from the calculations but not more than one value out of six per compound within a single experiment. The weighted arithmetic mean AVEw for each compound was calculated from the normalized values over all independent replicates of the single experiments comprising the six replicates each. The corresponding standard deviation for the weighted arithmetic mean was calculated according to the method described by Bronstein et al. (Bronstein, Semendjajew, Musiol, Mühlig, Taschenbuch der Mathematik, 5th edition 2001 (German), publisher: Verlag Harri Deutsch, Frankfurt am Main and Thun) and was combined with the Gauß′ error propagation associated with the performed calculation for the normalization. The resulting standard deviation is herein referred to as “combined standard deviation”.
HL-60 cells were cultivated according to the protocol of the provider in RPMI 1640 medium (Fisherscientific, #11554526) containing 10% fetal bovine serum (Fisherscientific, #15517589).
A compound is considered as a growth inhibitor of HL-60 cells, if—at a reference concentration of 20 μM—the weighted arithmetic mean of the normalized fluorescence intensity values after addition of the corresponding combined standard deviation amounts to 0.9 or lower, in particular to 0.8 or lower, 0.7 or lower, 0.6 or lower, 0.4 or lower, and 0.2 or lower, relative to the overall basis level of 1.0. The overall basis level was calculated as the weighted arithmetic mean of all normalized values from the DMSO control measurements in analogy to the calculations performed for the test-compounds. The corresponding combined standard deviation for the DMSO values amounts to less than 1·10^−2.

SMILES	activity at 20 µM
CCc1ccc(Oc2ccc(C(=O)O)cc2)cc1 [Compound 002, 4-(4-ethylphenoxy)benzoic acid]	80 to 90%
CCOC(=O)c1ccc(Oc2ccc(C(C)C)cc2)cc1 [Compound 054, ethyl 4-(4-isopropylphenoxy)benzoate]	80 to 90%
O=C(O)c1ccc(Oc2ccc(C3CC4CCC3CC4)cc2)nc1 (stereo not shown) [Compound 087, 6-(4-((1s,4s)-bicyclo[2.2.2]octan-2-yl)phenoxy)nicotinic acid]	80 to 90%
CCc1ccc(Oc2ccc(C(=O)NO)cc2)cc1 [Compound 165, 4-(4-ethylphenoxy)-N-hydroxybenzamide]	80 to 90%
CCCCc1ccc(Oc2ccc(C(=O)N(C)C)cc2)cc1 [Compound 218, 4-(4-butylphenoxy)-N,N-dimethylbenzamide]	40 to 60%
CCC(C)(C)c1ccc(Oc2ccc(C(=O)N(C)C)cc2)cc1 [Compound 223, N,N-dimethyl-4-(4-(tert-pentyl)phenoxy)benzamide]	70 to 80%
CCCCCc1ccc(Oc2ccc(C(N)=O)cn2)cc1 [Compound 245, 6-(4-pentylphenoxy)nicotinamide]	80 to 90%
CCC(C)(C)c1ccc(Oc2ccc(C(N)=O)cn2)cc1 [Compound 248, 6-(4-(tert-pentyl)phenoxy)nicotinamide]	80 to 90%
CCC(C)(C)c1ccc(Oc2ccc(C(=O)NC)cn2)cc1 [Compound 298, N-methyl-6-(4-(tert-pentyl)phenoxy)nicotinamide]	80 to 90%
CCCCCc1ccc(Oc2ccc(C(=O)N(C)C)cn2)cc1 [Compound 320, N,N-dimethyl-6-(4-pentylphenoxy)nicotinamide]	40 to 60%
CCOC(=O)c1ccc(Oc2ccc(C34CC5CC(CC(C5)C3)C4)cc2)c(F)c1 [Compound 414, ethyl 4-(4-((3r,5r,7r)-adamantan-1-yl)phenoxy)-3-fluorobenzoate]	60 to 70%
O=C(O)c1cnc(Oc2ccc(C(F)(F)F)cc2)c(F)c1 [Compound 427, 5-fluoro-6-(4-(trifluoromethyl)phenoxy)nicotinic acid]	80 to 90%
CCOC(=O)c1cnc(Oc2ccc(C(C)(C)CC)cc2)c(F)c1 [Compound 477, ethyl 5-fluoro-6-(4-(tert-pentyl)phenoxy)nicotinate]	80 to 90%
CCOC(=O)c1cnc(Oc2ccc(C3CCCCC3)cc2)c(F)c1 [Compound 488, ethyl 6-(4-cyclohexylphenoxy)-5-fluoronicotinate]	70 to 80%
CCOC(=O)c1cnc(Oc2ccc(C34CC5CC(CC(C5)C3)C4)cc2)c(F)c1 [Compound 492, ethyl 6-(4-((3r,5r,7r)-adamantan-1-yl)phenoxy)-5-fluoronicotinate]	60 to 70%
CCC(C)(C)c1ccc(Oc2ccc(C(=O)N(C)C)cc2F)cc1 [Compound 581, 3-fluoro-N,N-dimethyl-4-(4-(tert-pentyl)phenoxy)benzamide]	70 to 80%

SMILES	activity at 20 µM
CN(C)C(=O)c1ccc(Oc2ccc(C3CCCCC3)cc2)c(F)c1 [Compound 592, 4-(4-cyclohexylphenoxy)-3-fluoro-N,N-dimethylbenzamide]	80 to 90%
CNC(=O)c1cnc(Oc2ccc(C34CC5CC(CC(C5)C3)C4)cc2)c(F)c1 [Compound 674, 6-(4-((3r,5r,7r)-adamantan-1-yl)phenoxy)-5-fluoro-N-methylnicotinamide]	70 to 80%
CCC(C)(C)c1ccc(Oc2ncc(C(=O)N(C)C)cc2F)cc1 [Compound 685, 5-fluoro-N,N-dimethyl-6-(4-(tert-pentyl)phenoxy)nicotinamide]	70 to 80%
CN(C)C(=O)c1cnc(Oc2ccc(C34CC5CC(CC(C5)C3)C4)cc2)c(F)c1 [Compound 700, 6-(4-((3r,5r,7r)-adamantan-1-yl)phenoxy)-5-fluoro-N,N-dimethylnicotinamide]	60 to 70%
CCOC(=O)c1ccc(Oc2ccc(C3(C(F)(F)F)CC3)cc2)c(F)c1 [Compound 723, ethyl 3-fluoro-4-(4-(1-(trifluoromethyl)cyclopropyl)phenoxy)benzoate]	80 to 90%
O=C(O)c1ccc(Oc2ccc(C3(C(F)(F)F)CC3)cc2Cl)nc1 [Compound 738, 6-(2-chloro-4-(1-(trifluoromethyl)cyclopropyl)phenoxy)nicotinic acid]	80 to 90%
COC(=O)c1ccc(Oc2ccc(C3(C(F)(F)F)CC3)cc2)nc1 [Compound 739, methyl 6-(4-(1-(trifluoromethyl)cyclopropyl)phenoxy)nicotinate]	80 to 90%
COC(=O)c1ccc(Oc2ccc(C3(C(F)(F)C(F)(F)F)CC3)cc2)nc1 [Compound 740, methyl 6-(4-(1-(perfluoroethyl)cyclopropyl)phenoxy)nicotinate]	80 to 90%
CCOC(=O)c1ccc(Oc2ccc(C3(C(F)(F)F)CC3)cc2Cl)nc1 [Compound 756, ethyl 6-(2-chloro-4-(1-(trifluoromethyl)cyclopropyl)phenoxy)nicotinate]	70 to 80%
CN(C)C(=O)c1ccc(Oc2ccc(C3(C(F)(F)C(F)(F)F)CC3)cc2)cc1 [Compound 785, N,N-dimethyl-4-(4-(1-(perfluoroethyl)cyclopropyl)phenoxy)benzamide]	70 to 80%
CN(C)C(=O)c1ccc(Oc2ccc(C3(C(F)(F)F)CC3)cc2)c(F)c1 [Compound 786, 3-fluoro-N,N-dimethyl-4-(4-(1-(trifluoromethyl)cyclopropyl)phenoxy)benzamide]	70 to 80%
CN(C)C(=O)c1ccc(Oc2ccc(C3(C(F)(F)F)CC3)cc2Cl)cc1 [Compound 792, 4-(2-chloro-4-(1-(trifluoromethyl)cyclopropyl)phenoxy)-N,N-dimethylbenzamide]	80 to 90%
NC(=O)c1ccc(Oc2ccc(C3(C(F)(F)F)CC3)cc2)nc1 [Compound 793, 6-(4-(1-(trifluoromethyl)cyclopropyl)phenoxy)nicotinamide]	80 to 90%
CNC(=O)c1ccc(Oc2ccc(C3(C(F)(F)F)CC3)cc2)nc1 [Compound 811]	80 to 90%
CN(C)C(=O)c1ccc(Oc2ccc(C3(C(F)(F)C(F)(F)F)CC3)cc2)nc1 [Compound 821, N,N-dimethyl-6-(4-(1-(perfluoroethyl)cyclopropyl)phenoxy)nicotinamide]	60 to 70%
